According to ChEMBL document CHEMBL1201862, “PubChem BioAssay data set” (2004):
Calls of active or inactive are those of the source.

Assays:
[1] = target: Glucose-6-phosphate 1-dehydrogenase (Homo sapiens, UniProt P11413); assay: human G6PD enzyme inhibitors, dose response, selectivity assay for P. falciparum G6PD inhibitor project, biochemical, fluorescence (AID 504792); format: functional
[2] = control 3'UTR Renilla luciferase suppression, dose response, counter-screen for Shn3 inhibitor project, cell-based, Clone20-Shn3RL, cherry-picked (AID 624133); format: functional
[3] = HepG2 cell cytotoxicity, dose response, cytotoxicity control for Shn3 inhibitor project, CellTiter-Glo, cherry-picked (AID 624134); format: functional, cell-based
[4] = inhibitors of firefly luciferase expression or activity, dose response, H4 neuroglioma cells, luminescence (AID 1990); format: functional, cell-based
cells [5] = format: functional, cell-based
cells [6] = format: functional, cell-based; remark: listed apart in the source
[7] = Luminescence Cell-Based Dose Response HTS to Identify Inhibitors of 5'UTR Stem-Loop Driven Prion Protein mRNA Translation in H4 Neuroglioblastoma Cells. [Related pubchem assays: 1827 (Project Summary), 1813 (Primary HTS)]; format: functional
Vero [8] = assay: Vero cell cytotoxicity, cytotoxicity control for flavivirus capping enzyme inhibitors (AID 588742); format: functional; details: Chlorocebus sabaeus
[9] = Shn3 3'UTR reporter inhibitors, dose response, cell-based, Clone20 osteoblasts, firefly luciferase, cherry-picked (AID 624132); format: functional;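 note: firefly luciferase luminescence from reporter carrying the Shn3 3'UTR in osteoblasts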
[10] = inhibitors of SNCA 5'UTR-driven reporter translation, confirmation, H4 neuroglioma cells, luminescence (AID 1988); format: functional, cell-based
Prothrombin = Prothrombin (Bos taurus, UniProt P00735); assay: thrombin inhibition, dose response, biochemical, fluorescence polarization, uHTS hits (AID 602369); format: functional
[11] = target: 26S proteasome non-ATPase regulatory subunit 14 (Homo sapiens, UniProt O00487); assay: inhibition of proteasome subunit RPN11 – biochemical, fluorescence polarization, uHTS hits, confirmation (AID 602368); format: functional
[12] = target: 72 kDa type IV collagenase (Homo sapiens, UniProt P08253); assay: Dose Response validation of uHTS RPN11 inhibitor hits using a MMP-2 Fluorescence assay.; format: functional
HEK293 = assay: inhibitors of LMP1-driven NF-kB reporter, dose response, cell-based, HEK293, luciferase, cherry-pick (AID 588343); format: functional; details: Homo sapiens
[13] = target: Heat shock protein HSP 90-alpha (Homo sapiens, UniProt P07900); format: functional, organism-based
Nonstructural protein 1 = Nonstructural protein 1 (Influenza A virus, UniProt Q194T2); format: functional, Influenza A virus (A/California/07/2009(H1N1))
Vero [14] = assay: cells; format: functional, Chlorocebus sabaeus; details: Chlorocebus sabaeus, Vero
Vero [15] = assay: cells; format: functional, cell-based, Chlorocebus sabaeus; details: Chlorocebus sabaeus, Vero

Chain of 26S proteasome non-ATPase regulatory subunit 14 (O00487 whole entry): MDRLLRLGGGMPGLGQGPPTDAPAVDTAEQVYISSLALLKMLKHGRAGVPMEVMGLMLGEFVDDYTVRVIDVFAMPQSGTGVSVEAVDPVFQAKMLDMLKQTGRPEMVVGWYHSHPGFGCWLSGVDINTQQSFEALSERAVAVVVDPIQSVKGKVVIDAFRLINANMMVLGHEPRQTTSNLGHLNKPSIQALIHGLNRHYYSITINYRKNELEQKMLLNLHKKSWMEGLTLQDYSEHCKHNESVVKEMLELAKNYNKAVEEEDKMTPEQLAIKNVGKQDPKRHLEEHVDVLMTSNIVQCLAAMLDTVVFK
Chain of Glucose-6-phosphate 1-dehydrogenase (P11413 whole entry): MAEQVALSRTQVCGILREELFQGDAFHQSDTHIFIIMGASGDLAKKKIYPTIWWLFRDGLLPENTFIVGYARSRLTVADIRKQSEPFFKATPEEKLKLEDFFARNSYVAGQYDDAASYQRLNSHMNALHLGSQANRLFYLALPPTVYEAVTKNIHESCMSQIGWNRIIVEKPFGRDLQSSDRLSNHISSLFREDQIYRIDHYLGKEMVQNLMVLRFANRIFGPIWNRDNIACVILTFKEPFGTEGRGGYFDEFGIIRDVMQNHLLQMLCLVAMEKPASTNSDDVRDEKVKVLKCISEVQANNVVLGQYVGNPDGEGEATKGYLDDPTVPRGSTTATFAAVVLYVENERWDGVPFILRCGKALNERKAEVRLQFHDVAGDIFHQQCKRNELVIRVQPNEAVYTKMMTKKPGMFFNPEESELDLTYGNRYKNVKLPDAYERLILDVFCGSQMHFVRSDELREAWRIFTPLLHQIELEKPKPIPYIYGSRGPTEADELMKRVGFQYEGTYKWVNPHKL
Chain of 72 kDa type IV collagenase (P08253 whole entry): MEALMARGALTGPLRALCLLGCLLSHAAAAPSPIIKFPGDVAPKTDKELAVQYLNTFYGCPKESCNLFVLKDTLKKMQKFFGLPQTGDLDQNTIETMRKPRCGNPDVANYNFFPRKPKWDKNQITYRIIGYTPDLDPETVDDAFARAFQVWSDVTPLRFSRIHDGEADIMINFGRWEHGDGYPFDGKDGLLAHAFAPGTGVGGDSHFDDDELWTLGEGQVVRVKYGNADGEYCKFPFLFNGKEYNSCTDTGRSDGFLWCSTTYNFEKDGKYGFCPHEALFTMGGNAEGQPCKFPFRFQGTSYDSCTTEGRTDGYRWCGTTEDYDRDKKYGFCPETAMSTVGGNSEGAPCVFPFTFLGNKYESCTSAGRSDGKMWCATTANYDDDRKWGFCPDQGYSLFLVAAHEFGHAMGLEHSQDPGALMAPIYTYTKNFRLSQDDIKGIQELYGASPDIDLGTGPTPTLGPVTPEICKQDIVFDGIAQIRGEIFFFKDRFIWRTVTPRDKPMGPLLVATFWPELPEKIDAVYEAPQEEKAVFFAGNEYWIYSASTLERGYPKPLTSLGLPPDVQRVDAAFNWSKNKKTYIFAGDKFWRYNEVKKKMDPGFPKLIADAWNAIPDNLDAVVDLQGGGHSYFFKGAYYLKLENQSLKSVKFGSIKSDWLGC
Chain of Nonstructural protein 1 (Q194T2 whole entry): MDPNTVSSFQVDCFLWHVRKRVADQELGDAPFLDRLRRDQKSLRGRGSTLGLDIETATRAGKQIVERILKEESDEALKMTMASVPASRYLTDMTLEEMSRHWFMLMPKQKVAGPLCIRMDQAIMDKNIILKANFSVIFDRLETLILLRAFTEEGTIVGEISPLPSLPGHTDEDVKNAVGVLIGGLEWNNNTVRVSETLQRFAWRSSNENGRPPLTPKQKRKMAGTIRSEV

For COc1cccc(CNc2ccc3[nH]c(O)nc3c2)c1OCc1ccc(F)cc1, the IC50 [1] was > 80 µM (inactive).
For COc1ccc(C(NC(=O)c2cccnc2)c2cc(Cl)c3cccnc3c2O)cc1OC (stereo not drawn), the AC50 [2] was 1.14 µM (active), the AC50 [3] was 2.7 µM (active) and the EC50 [4] was 13.3 µM (active). For the same molecule, the EC50 (cells [5]) was 14.2 µM (active), the EC50 (cells [6]) was > 350 µM (not active) and the EC50 [7] was 0.297 µM (active). The CC50 (Vero [8]) was 3.92 µM (active), the AC50 [9] was 1.88 µM (active) and the EC50 [10] was > 120 µM (not active).
For COc1ccc(OC)c(N2C(=O)/C(=C/Nc3c(C)n(C)n(-c4ccccc4)c3=O)C(=O)NC2=S)c1, the IC50 (Prothrombin) was 51.9 µM (active), the IC50 [11] was 34.7 µM (active) and the IC50 [12] was 38.7 µM (active).
In the case of COc1ccc(CCn2c(NN=C3CCCC3)nc3c2c(=O)[nH]c(=O)n3C)cc1, the IC50 [1] is reported as > 80 µM (inactive).
In the case of COc1ccccc1NC(=O)CSc1nc(N)c(C#N)cc1C#N, the IC50 (Prothrombin) is reported as 55.8 µM (active), the IC50 [11] is reported as 36.2 µM (active) and the IC50 [12] is reported as > 100 µM (inactive).
In the case of CC(=NNc1nc2ccccc2o1)c1ncccn1, the AC50 (HEK293) is reported as 1.23 µM (active), the AC50 [13] is reported as 1.97 µM (active) and the IC50 (Nonstructural protein 1) is reported as 0.739 µM (active). For the same molecule, the CC50 (Vero [14]) was 1.34 µM (active) and the IC50 (Vero [15]) was > 25 µM (active).
For COc1ccc(C=C2OC(O)=C(C(C)=O)C2=O)cc1, the AC50 (HEK293) was 6.16 µM (active).
